Measured values: publication PMC10017027, “Design and Synthesis of Novel HIV-1 NNRTIs with Bicyclic Cores and with Improved Physicochemical Properties” (Journal of Medicinal Chemistry, 2023)
≈ marks a conversion by molar mass, not a printed value. Like-named read-outs stand apart in the source and are kept apart here.

Legend:
HIV-1 HXB2 K103N variant = assay: MT-4 antiviral cytopathic effect assay, HXB2-K103N; assay type: cell-based; conditions: for EC50: Human immunodeficiency virus 1, HXB2, read-out: EC50 K103N
Description: (§1) The prepared compounds were tested for their anti-HIV-1 activity (Table 1). A viral cytopathic effect assay in MT-4 cells with HIV-1 IIIB virus was used to determine compound potency (EC50, 50% cell viability) in protecting virus induced cell killing. Compound cytotoxicity was assessed in MT-4 cells in the absence of virus (CC50, 50% cytotoxicity). […] ETV contains bromo and amino substitutions on the DAPY core. […] Likely, with the smaller cyano arm I in 1, 3, and 5, the cores could be further elaborated to optimize the compound position in the pocket and to improve potency.
(§2) Compounds were tested in a high-throughput 384-well assay format for their ability to inhibit the virus replication-induced cytopathic effect in MT-4 cell cultures acutely infected with HIV-1 (IIIB strain), HXB2, HXB2-K103N, and HXB2-Y181C. Compounds were serially diluted (1:3) in DMSO on 384-well polypropylene plates and further diluted 200-fold into complete RPMI media (10% FBS, 1% P/S) using Biotek Micro Flow and an Agilent ECHO acoustic dispenser. Each plate contained up to eight test compounds, with negative (no drug control) and 5 μM AZT positive controls. MT-4 cells were further diluted in complete RPMI media and added to each plate using a Micro-Flo dispenser. After five days of incubation in a humidified and temperature-controlled incubator (37 °C), Cell Titer Glo (Promega) was added to the assay plates to quantify the amount of […]. EC50 and CC50 values were defined as the compound concentration that causes a 50% decrease in luminescence signal and were calculated using a sigmoidal dose-response model to generate curve fits.

[1] = Predicted clearance in human liver microsomes; assay type: in vitro ADME; conditions: pH 7.4, 1 μM compound, read-out: HLM CLint, pred (converted)
Description: Next, microsome stability was profiled in purified human liver microsomes (HLM).
Metabolic stability of compounds was assessed using HLM (Corning cat. 457117).[52] In this assay, 10 nL compounds at a concentration of 1 mM in 100% DMSO are dispensed into 384-well polypropylene plates using the Echo 550 acoustic liquid dispenser (Labcyte). Each plate contains 384 wells with a single test compound in each well.
A solution of HLM at 2 mg/mL in 100 mM K2HPO4/KH2PO4 pH 7.4 with 0.0225 mg/mL Alamethicin from Trichoderma viride (Sigma-Aldrich cat. A4665-10MG) was incubated on ice for 15 min. 5 μL of this solution was added to individual wells following 15 min incubation at room temperature; and supplemented with 5 μL NADPH Regenerating Solution of cofactors (Corning Gentest UGT Reaction Mix solutions A and B, cat. 451200 and 451220) containing 100 mM K2HPO4/KH2PO4 pH 7.4, 2.6 mM NADP^+, 6.6 mM glucose-6-phosphate, 6.6 mM MgCl2, 0.8 U/mL glucose-6-phosphate dehydrogenase, 0.1 mM sodium citrate, and 6.8 mM uridine diphosphate-glucuronic acid. The final concentration of analyte compounds at the beginning of the reactions was 1 μM. The reactions were incubated at 37 °C, and time points of 0, 5, 15, 30, 40, 50, 60, and 70 min were collected for further analysis. Background data were collected using reactions without analyte compounds.
Upon collection of the reaction time points, samples were quenched at the set time points with 30 μL of a solution of 72% acetonitrile, 8% methanol, 0.1% formic acid, 19.9% water, and labetalol as an internal standard (IS) at a concentration of 650 nM. Reaction plates were span in a centrifuge at a speed of 4000 rcf for 30 min and 4 °C, following a dilution of the 10 μL quenched reaction into 40 μL de-ionized water, yielding assay plates.
Samples were analyzed by a solid-phase extraction coupled with a quadrupole time-of-flight mass spectrometer, using an Agilent QToF 6530 RapidFire 360 system with C4 type A solid state cartridges. Analysis was performed in either positive or negative ionization modes. Mobile phases contained 0.1% formic acid in water for loading analytes onto solid state extraction cartridges, and 0.1% formic acid in acetonitrile for elution into the mass spectrometer in positive ionization mode, or 0.1% acetic acid in water for loading and 0.1% acetic acid in acetonitrile for extraction in negative ionization mode. Peak-area ratios of integrated counts for individual compounds to IS were plotted as a semi-logarithmic chart of log versus time. Initial, linear portion of decay was fitted to a linear regression equation to derive the half-time of a compound decay.
Pharmacological parameters for an analyte compound metabolism were calculated using the equations described in Table S2.
Table S2. Pharmacological parameters for an analyte compound metabolism were
calculated using the following equations:
Intrinsic Clearance (in Cl = ln 2
int, in vitro T1/2 ∗ Conc
Intrinsic Clearance Cl = Clint, in vitro ∗ Liver Mass ∗ Yield
Predicted Hepatic Cl = Clint ∗ QH
QH (Hepatic Blood Flow) = 1.3 L/hr/kg

E138K = conditions: cell culture; cited from earlier work
[2] = Solubility assessment, shake-flask method; assay type: physicochemical; conditions: for solubility thermodynamic / HCl sol / PBS sol: supplement CSV; for solubility: shake-flask
Description: Compound solubility was measured at Analiza (Cleveland, OH) by the standard shake-flask method at pH 1.2 and 7.4 and quantitated by HPLC-UV.

HIV-1 HXB2 Y181C variant = assay: MT-4 antiviral cytopathic effect assay, HXB2-Y181C; assay type: cell-based; conditions: for EC50: Human immunodeficiency virus 1, HXB2, read-out: EC50 Y181C
Description: as §1, §2

in vitro = assay type: cell-based; conditions: human
Description: as §1, §2

[3] = MDCK permeability assay (A to B); assay type: in vitro ADME, Canine; conditions: dog, MDCK
Source text: (§3) Compounds were further tested in a Madin–Darby Canine Kidney (MDCK) assay to evaluate their potential for oral absorption. […] Additionally, there was no trend for better permeability when comparing arm I versus arm II when matched with the same core. The size of the B ring had the greatest influence on Papp with the trend being five-membered > six-membered > seven-membered rings (Table 1).
(§4) cMdr1-KO cells were maintained in Dulbecco’s modified Eagle’s medium (DMEM) with sodium pyruvate and GlutaMax, supplemented with 1% Pen/Strep and 10% fetal bovine serum in an incubator set at 37 °C, 90% humidity, and 5% CO2. MDCKII- cMdr1-KO cells were grown to confluence over 3 days on 96-well PET plates with 1 μm pore size, polyester membrane (Corning 3392). Experiments were run using HBSS donor buffer from Invitrogen containing an additional 10 mM HEPES, 15 mM glucose, and 0.1% BSA adjusted to pH 7.4. The receiver well had HBSS buffer supplemented with 1% BSA, 10 mM HEPES, 15 mM glucose, and the pH was adjusted to 7.4. TEER values were read to test membrane integrity at the beginning of the assay. The experiment was started by the addition of dosing solutions containing test compounds. Samples were taken from the donor compartment at 0/120 min and from the receiver compartment at 120 min. Each compound was tested in two separate replicate wells. All samples were immediately collected in a 72:8:20 MeCN/MeOH:H2O mix to precipitate protein and stabilize the test compounds. Cells were dosed on the apical side to determine forward (A to B) permeability. To test for non-specific binding and compound instability, the total amount of drug was quantified at the end of the experiment and compared to the material present in the original dosing solution as a percentage of recovery. Samples were analyzed by RF-QToF.

MDCKII-cMdr1-KO cells = assay: MDCK permeability assay (A to B); assay type: in vitro ADME, Canine; conditions: in words
Source text: as §3, §4

HIV-1 HXB2 = assay: MT-4 antiviral cytopathic effect assay, HXB2 wild-type virus; assay type: cell-based
Description: (§5) The prepared compounds were tested for their anti-HIV-1 activity (Table 1). A viral cytopathic effect assay in MT-4 cells with HIV-1 IIIB virus was used to determine compound potency (EC50, 50% cell viability) in protecting virus induced cell killing. Compound cytotoxicity was assessed in MT-4 cells in the absence of virus (CC50, 50% cytotoxicity).
as §2

HIV-1 (IIIB strain) = assay: MT-4 antiviral cytopathic effect assay, HIV-1 IIIB; assay type: cell-based; conditions: HIV-1 IIIB, WT
Description: as §5, §2

[4] = Solubility assessment, shake-flask method; assay type: physicochemical; conditions: compared to the other compounds, in words
[5] = fold change: ratio of potency against HXB2 K103N and parental HXB2
[6] = supplement CSV, fold change vs HXB2
[7] = HCl, pH 1.2, read-out: solubility HCl
[8] = phosphate-buffered saline, pH 7.4, read-out: solubility PBS
[9] = fold change: ratio of potency against HXB2 Y181C and parental HXB2
[10] = apparent permeability coefficient, A to B, pH 7.4
[11] = Human immunodeficiency virus 1, MT4, HIV-1 HXB2 wild-type, MT-4 cells, read-out: EC50 HXB2
[12] = Human immunodeficiency virus 1, IIIB, MT4, protects 50% of MT-4 cells against HIV-1-induced cell killing, read-out: EC50 MT4

Compound	EC50 (HIV-1 HXB2 K103N variant) [nM]	K103N (FC) (HIV-1 HXB2 K103N variant; [5])	K103N (FC) (HIV-1 HXB2 K103N variant; [6])	CLint scaled at 1.167 h, 1 µM [1] [mL/min/kg]	resistance conferred by E138K (E138K)	solubility [2, 7] [µM]	solubility [2, 8] [µM]	EC50 (HIV-1 HXB2 Y181C variant) [nM]	Y181C (FC) (HIV-1 HXB2 Y181C variant; [9])	Y181C (FC) (HIV-1 HXB2 Y181C variant; [6])	CC50 at 120 h (in vitro) [nM]	Papp A→B at 120 min ([3]; supplement CSV) [×10⁻⁶ cm/s]	Papp A→B at 120 min [3, 10] [×10⁻⁶ cm/s]	permeability (Papp) in the MDCK assay (MDCKII-cMdr1-KO cells)	HCl sol [2] [µM]	PBS sol [2] [µM]	EC50 (HIV-1 HXB2; [11]) [nM]	EC50 (HIV-1 (IIIB strain); [12]) [nM]	further results
Cc1cc(/C=C/C#N)cc(C)c1Nc1ccnc(Nc2ccc(C#N)cc2)n1 [RPV, rilpivirine, reference compound]	1.5	1.3	1.3	14.3	2–3 fold	> 100	< 1	3.8	3.2	3.2	6500	4.6	4.6	moderate					solubility thermodynamic ([2]; HCl, pH 1.2, read-out: HCl sol): > 100 µM; solubility thermodynamic ([2]; PBS, pH 7.4, aqueous buffer, read-out: PBS sol): < 1 µM
Cc1cc(C#N)cc(C)c1Oc1nc(Nc2ccc(C#N)cc2)nc(N)c1Br [ETV, etravirine, reference compound]	2.3	0.9	0.9	4.17	2–3 fold	< 1	< 1	11.1	4.8	4.8	7300	3.8	3.8	moderate	<1	<1			EC50 (HIV-1 HXB2; Human immunodeficiency virus 1, HXB2, MT4, read-out: EC50 HXB2): 2.5 nM; EC50 (HIV-1 (IIIB strain); Human immunodeficiency virus 1, MT4, read-out: EC50 MT4, protects 50% of MT-4 cells against HIV-1-induced cell killing): 2.4 nM
Cc1cc(/C=C/C#N)cc(C)c1N1CC(=O)Nc2cnc(Nc3ccc(C#N)cc3)nc21 [Compound 4, 4-[(8-{4-[(1E)-2-Cyanoeth-1-en-1-yl]-2,6-dimethylphenyl}-6-oxo-5,6,7,8-tetrahydropteridin-2-yl)amino]benzonitrile]	2.8	1.2	1.2	16.3		6.5 (≈ 2.74 µg/mL)	1.8 (≈ 0.759 µg/mL)	4.9	2.0	2.0	42400	4.2	4.2		6.5	1.8	2.4	2.6 to 3	solubility at pH 2 [4]: markedly reduced; EC50 (HIV-1 (IIIB strain); protects 50% of MT-4 cells against HIV-1-induced cell killing, read-out: EC50 MT4): 2.7 nM
Cc1cc(C#N)cc(C)c1N1CCC(=O)Nc2cnc(Nc3ccc(C#N)cc3)nc21 [Compound 5, 4-{2-[(4-Cyanophenyl)amino]-6-oxo-5H,6H,7H,8H,9H-pyrimido[4,5-b][1,4]diazepin-9-yl}-3,5-dimethylbenzonitrile]	70.7	2.4	2.4	15.5		87.3 (≈ 35.7 µg/mL)	1.4 (≈ 0.573 µg/mL)	198	6.7	6.7		3.5	3.5		87.3	1.4	29.4	43.4	CC50 at 5 days (in vitro): > 50000 nM
